Experimental findings from ChEMBL document CHEMBL3102716, “High-throughput virtual screening identifies novel N'-(1-phenylethylidene)-benzohydrazides as potent, specific, and reversible LSD1 inhibitors” (J Med Chem, 2013) are described below.

The source made the active and inactive calls. The calls are words filed in the database; no cut-off is given here. Where only a bound is given, the exact number is not on record here.

The test system of one assay is T47D. The experiment in a line: cells. Particulars: Homo sapiens, 96 h.
For assay [1], the target named is T1, Lysine-specific histone demethylase 1A (Homo sapiens, UniProt O60341).
Description: Inhibition of LSD1 (unknown origin) using dimethyl K4 peptide as substrate assessed as resorufin level by spectrophotometric analysis
Assay [2] has as its target T1, Lysine-specific histone demethylase 1A. The experiment in a line: Inhibition of GST-tagged human recombinant LSD1 using dimethylated H3K4 peptide as substrate by mass spectrometric analysis.
Assay [3] has the same target. The experiment in a line: Inhibition of human recombinant LSD1 expressed in Escherichia coli BL21(DE3) using H3K4me2 as substrate by chemiluminescence assay.
For assay [4] the target is unchanged. The assay is described as follows: Binding affinity to recombinant full-length His6-tagged LSD1 (unknown origin) assessed as Boltzmann melting temperature at 15 uM after 30 mins by differential scanning fluorimetry. On the technique in general: DSF heats the sample and reads unfolding from a dye or from intrinsic fluorescence.
Assay [5] has the same target. The assay is described as follows: Non-competitive inhibition of recombinant full-length His6-tagged LSD1 (unknown origin) using dimethylated K4N-terminal H3 peptide as substrate at 100 nM by Michaelis-Menten plot analysis.
The nature of assay [6]: Inhibition of glucose oxidase (unknown origin). Details: […].
In the next assay the target is Cytochrome P450 2C9 (Homo sapiens, UniProt P11712). The assay is described as follows: Inhibition of CYP2C9 (unknown origin). It is filed as ADME.
Chain of Cytochrome P450 2C9 (P11712 whole entry): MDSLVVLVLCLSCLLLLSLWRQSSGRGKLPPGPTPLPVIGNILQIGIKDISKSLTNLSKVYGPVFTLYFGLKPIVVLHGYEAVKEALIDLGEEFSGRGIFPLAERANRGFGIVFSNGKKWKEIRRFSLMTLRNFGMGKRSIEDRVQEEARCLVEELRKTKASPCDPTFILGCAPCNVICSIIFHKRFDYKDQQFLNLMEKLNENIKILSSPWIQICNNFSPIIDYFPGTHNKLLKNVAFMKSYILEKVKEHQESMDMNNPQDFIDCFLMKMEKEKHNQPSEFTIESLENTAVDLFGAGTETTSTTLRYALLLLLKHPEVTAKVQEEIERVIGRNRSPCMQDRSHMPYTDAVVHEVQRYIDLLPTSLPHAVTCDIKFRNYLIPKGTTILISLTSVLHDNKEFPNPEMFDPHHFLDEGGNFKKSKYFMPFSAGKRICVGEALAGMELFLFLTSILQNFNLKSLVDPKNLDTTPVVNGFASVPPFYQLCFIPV
Assay [7] concerns the target Voltage-gated inwardly rectifying potassium channel KCNH2 (Homo sapiens, UniProt Q12809). The assay is described as follows: Inhibition of human ERG.
Assay [8] concerns the target T1, Lysine-specific histone demethylase 1A. The assay is described as follows: Non-competitive inhibition of recombinant full-length His6-tagged LSD1 (unknown origin) using dimethylated K4N-terminal H3 peptide as substrate at 3 nM by Michaelis-Menten plot analysis.
In assay [9] the target is T2, Amine oxidase [flavin-containing] A (Homo sapiens, UniProt P21397).
T2 sequence (P21397 whole entry): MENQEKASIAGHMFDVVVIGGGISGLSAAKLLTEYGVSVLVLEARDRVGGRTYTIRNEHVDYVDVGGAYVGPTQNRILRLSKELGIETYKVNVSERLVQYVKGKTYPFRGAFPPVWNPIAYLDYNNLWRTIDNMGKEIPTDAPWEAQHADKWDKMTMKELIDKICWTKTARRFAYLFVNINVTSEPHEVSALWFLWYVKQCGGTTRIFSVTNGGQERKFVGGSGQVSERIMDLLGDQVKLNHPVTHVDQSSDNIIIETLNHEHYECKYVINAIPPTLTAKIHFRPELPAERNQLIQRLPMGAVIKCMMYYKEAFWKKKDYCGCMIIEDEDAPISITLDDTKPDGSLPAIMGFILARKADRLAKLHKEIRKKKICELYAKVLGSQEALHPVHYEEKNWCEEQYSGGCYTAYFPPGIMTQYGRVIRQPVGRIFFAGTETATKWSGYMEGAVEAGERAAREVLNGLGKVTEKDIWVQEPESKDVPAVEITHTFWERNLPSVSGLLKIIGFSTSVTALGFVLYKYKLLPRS
Description: Inhibition of MAO-A (unknown origin)

A further assay deals with Cytochrome P450 2D6 (Homo sapiens, UniProt P10635). The assay is described as follows: Inhibition of CYP2D6 (unknown origin). It is filed as ADME.
Chain of Cytochrome P450 2D6 (P10635 whole entry): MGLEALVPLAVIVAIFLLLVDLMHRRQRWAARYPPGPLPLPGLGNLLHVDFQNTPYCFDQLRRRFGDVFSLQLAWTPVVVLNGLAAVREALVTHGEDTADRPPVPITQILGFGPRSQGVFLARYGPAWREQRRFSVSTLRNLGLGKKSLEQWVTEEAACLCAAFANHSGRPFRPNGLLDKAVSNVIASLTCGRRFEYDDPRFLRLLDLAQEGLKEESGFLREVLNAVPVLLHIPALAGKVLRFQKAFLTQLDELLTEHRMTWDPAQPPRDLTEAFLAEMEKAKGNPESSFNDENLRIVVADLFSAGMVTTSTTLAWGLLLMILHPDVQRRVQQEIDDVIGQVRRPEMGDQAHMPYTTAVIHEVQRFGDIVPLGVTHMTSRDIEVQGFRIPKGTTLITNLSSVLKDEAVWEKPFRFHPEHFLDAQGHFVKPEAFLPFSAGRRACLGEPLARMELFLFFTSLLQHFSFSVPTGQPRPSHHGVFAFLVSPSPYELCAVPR
For another assay, the target named is T3, Cytochrome P450 1A2 (Homo sapiens, UniProt P05177).
T3 sequence (P05177 whole entry): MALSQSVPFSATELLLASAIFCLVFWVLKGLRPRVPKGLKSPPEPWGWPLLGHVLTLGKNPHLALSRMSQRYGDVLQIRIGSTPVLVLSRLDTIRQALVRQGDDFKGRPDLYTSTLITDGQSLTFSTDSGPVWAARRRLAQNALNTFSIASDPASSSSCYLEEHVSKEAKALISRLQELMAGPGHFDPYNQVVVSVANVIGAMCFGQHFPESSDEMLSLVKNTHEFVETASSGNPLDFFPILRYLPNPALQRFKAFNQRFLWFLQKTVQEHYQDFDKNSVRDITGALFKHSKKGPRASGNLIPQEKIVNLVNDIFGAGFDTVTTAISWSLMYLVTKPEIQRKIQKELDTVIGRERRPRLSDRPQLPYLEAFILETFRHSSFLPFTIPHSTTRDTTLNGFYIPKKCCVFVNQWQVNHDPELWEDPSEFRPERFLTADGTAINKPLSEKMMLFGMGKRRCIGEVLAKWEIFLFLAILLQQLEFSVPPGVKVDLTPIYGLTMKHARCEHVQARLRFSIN
The assay is described as follows: Inhibition of CYP1A2 (unknown origin). It is filed as ADME.

The target in assay [10] is T1, Lysine-specific histone demethylase 1A. The assay is described as follows: Non-competitive inhibition of recombinant full-length His6-tagged LSD1 (unknown origin) using dimethylated K4N-terminal H3 peptide as substrate at 30 nM by Michaelis-Menten plot analysis.
Assay [11] in a line: Inhibition of D-lactate dehydrogenase (unknown origin). Details: species or system Homo sapiens.
Another assay concerns the target Cytochrome P450 3A4 (Homo sapiens, UniProt P08684). The experiment in a line: Inhibition of CYP3A4 (unknown origin). The assay is classed as ADME.
In assay [12] the target is T4, Amine oxidase [flavin-containing] B (Homo sapiens, UniProt P27338).
T4 sequence (P27338 whole entry): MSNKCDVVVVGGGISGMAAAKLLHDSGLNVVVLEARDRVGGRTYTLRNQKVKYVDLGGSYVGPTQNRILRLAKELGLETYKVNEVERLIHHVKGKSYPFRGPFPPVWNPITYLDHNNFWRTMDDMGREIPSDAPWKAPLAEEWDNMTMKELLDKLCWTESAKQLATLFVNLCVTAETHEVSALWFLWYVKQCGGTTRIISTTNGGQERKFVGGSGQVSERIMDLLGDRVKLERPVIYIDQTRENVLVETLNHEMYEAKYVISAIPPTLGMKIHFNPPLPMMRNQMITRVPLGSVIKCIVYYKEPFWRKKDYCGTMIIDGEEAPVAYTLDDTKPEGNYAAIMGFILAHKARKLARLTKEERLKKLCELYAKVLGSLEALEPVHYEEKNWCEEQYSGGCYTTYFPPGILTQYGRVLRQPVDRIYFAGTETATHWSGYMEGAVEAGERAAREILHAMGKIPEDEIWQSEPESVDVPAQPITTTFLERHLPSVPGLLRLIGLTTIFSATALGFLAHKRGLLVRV
Description: Inhibition of MAO-B (unknown origin)

The target in the next assay is Cytochrome P450 2C19 (Homo sapiens, UniProt P33261). The assay is described as follows: Inhibition of CYP2C19 (unknown origin). It is filed as ADME.
Chain of Cytochrome P450 2C19 (P33261 whole entry): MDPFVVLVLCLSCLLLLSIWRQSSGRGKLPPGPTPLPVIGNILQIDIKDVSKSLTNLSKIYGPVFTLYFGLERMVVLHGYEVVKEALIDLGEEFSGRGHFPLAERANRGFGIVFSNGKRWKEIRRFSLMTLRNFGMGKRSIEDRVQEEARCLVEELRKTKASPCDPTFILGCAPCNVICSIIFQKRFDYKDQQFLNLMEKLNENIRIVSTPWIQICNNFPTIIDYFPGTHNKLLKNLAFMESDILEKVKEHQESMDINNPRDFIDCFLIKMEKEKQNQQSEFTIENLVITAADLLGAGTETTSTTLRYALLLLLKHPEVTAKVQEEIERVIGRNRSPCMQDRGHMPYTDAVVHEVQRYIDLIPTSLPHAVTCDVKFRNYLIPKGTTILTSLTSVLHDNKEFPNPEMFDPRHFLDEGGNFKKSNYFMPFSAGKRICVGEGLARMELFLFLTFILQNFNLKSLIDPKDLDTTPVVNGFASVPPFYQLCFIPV
Assay [13] concerns the target T1, Lysine-specific histone demethylase 1A. The assay is described as follows: Binding affinity to recombinant full-length His6-tagged LSD1 (unknown origin) assessed as first derivative melting temperature at 15 uM after 30 mins by differential scanning fluorimetry.
The target is the same in assay [14]. The experiment in a line: Reversible inhibition of full-length 6His-tagged LSD1 (unknown origin) at 10XIC50 preincubated for 1 hr followed by 100 fold dilution relative to control.
For assay [15] the target is unchanged. The assay is described as follows: Non-competitive inhibition of recombinant full-length His6-tagged LSD1 (unknown origin) using dimethylated K4N-terminal H3 peptide as substrate at 10 nM by Michaelis-Menten plot analysis.
Assay [16] shares this target. The experiment in a line: Non-competitive inhibition of recombinant full-length His6-tagged LSD1 (unknown origin) using dimethylated K4N-terminal H3 peptide as substrate at 1 nM by Michaelis-Menten plot analysis.
Assay [17] shares this target. The assay is described as follows: Reversible inhibition of full-length 6His-tagged LSD1 (unknown origin) at 10XIC50 after 1 hr relative to control.
For assay [18] the target is unchanged. The assay is described as follows: Binding affinity to recombinant full-length His6-tagged LSD1 (unknown origin) assessed as second derivative melting temperature at 15 uM after 30 mins by differential scanning fluorimetry (reference value: […] +/- 1.08 degC).

Chain of Voltage-gated inwardly rectifying potassium channel KCNH2 (Q12809 whole entry): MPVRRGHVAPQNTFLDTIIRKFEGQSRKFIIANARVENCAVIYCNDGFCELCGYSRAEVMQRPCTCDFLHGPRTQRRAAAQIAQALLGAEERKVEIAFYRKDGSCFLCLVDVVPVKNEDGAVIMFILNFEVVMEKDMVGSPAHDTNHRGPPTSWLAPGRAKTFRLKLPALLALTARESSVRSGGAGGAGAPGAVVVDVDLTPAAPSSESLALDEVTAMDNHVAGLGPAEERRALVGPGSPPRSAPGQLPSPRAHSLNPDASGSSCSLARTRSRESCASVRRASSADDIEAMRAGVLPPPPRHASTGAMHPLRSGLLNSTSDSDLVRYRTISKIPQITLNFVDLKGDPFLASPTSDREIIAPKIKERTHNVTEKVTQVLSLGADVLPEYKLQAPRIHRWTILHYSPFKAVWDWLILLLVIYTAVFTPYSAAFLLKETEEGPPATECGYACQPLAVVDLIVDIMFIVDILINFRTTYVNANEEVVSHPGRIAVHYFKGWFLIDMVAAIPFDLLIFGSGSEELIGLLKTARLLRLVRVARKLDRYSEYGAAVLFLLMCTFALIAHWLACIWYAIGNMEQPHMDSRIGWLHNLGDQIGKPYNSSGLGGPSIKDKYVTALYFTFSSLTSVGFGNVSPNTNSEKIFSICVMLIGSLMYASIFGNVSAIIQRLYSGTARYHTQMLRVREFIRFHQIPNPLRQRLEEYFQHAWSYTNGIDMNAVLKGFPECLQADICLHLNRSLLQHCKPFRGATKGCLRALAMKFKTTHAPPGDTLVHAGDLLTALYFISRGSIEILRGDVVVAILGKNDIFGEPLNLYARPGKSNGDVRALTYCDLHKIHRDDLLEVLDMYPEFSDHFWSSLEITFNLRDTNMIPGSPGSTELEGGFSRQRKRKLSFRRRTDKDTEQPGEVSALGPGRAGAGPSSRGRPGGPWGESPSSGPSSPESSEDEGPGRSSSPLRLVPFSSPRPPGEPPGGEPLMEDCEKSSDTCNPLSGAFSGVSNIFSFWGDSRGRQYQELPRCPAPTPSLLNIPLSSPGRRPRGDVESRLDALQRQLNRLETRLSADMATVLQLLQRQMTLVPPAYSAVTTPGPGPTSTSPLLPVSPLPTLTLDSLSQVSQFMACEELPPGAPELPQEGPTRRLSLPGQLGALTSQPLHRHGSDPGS
Chain of Cytochrome P450 3A4 (P08684 whole entry): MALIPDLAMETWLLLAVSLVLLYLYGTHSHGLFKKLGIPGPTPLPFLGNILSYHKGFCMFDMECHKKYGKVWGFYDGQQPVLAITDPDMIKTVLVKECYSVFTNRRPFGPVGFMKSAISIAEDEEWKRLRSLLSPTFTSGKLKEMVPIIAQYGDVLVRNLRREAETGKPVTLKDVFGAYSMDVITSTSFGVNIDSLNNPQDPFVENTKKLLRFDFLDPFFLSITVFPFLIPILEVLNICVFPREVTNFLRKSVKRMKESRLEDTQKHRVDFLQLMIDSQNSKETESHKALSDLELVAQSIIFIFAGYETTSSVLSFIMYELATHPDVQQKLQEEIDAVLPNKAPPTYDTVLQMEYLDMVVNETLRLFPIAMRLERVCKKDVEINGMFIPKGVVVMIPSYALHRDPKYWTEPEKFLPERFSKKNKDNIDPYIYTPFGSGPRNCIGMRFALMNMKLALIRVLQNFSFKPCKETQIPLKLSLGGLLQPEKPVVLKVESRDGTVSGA

The IC50 is the concentration needed to halve the response being measured. `CC/C(=N/NC(=O)c1cccc(S(=O)(=O)N2CCOCC2)c1)c1cc(Cl)ccc1O`: the results for the IC50 (in the assay on T47D; in assay [1]) were 0.352 µM and over 3 µM, respectively.

As for `COc1ccc(Cl)cc1C(=O)NNC(=O)c1cc(S(=O)(=O)N2CCOCC2)ccc1F`, the half-inhibitory concentration (IC50) with T47D was over 10 µM; in assay [1] it was over 3 µM.

With `CCN(CC)c1cccc(C(=O)N/N=C(\C)c2cccc(C)c2)c1`, the IC50 in the assay with T47D is over 10 µM; in assay [1], over 3 µM.

Regarding `C/C(=N\NC(=O)c1cccc(S(=O)(=O)N2CCOCC2)c1)c1ccnc(Cl)c1`, the IC50 in the assay with T47D is over 10 µM; in assay [1], over 3 µM.

Turning to `COC(=O)c1cc(CN2CCN(C(=N)N)CC2)cc(C(=O)N2CCN(C(=O)c3ccc(C=N)cc3)CC2)c1`, the IC50 in [2] is 5.2 µM.

Turning to `C/C(=N\NC(=O)c1cccc(S(=O)(=O)N2CCOCC2)c1)c1cccc(Cl)c1F`, the IC50 was over 10 µM in the assay on T47D and over 3 µM in assay [1].

With `C/C(=N/NC(=O)c1cccc(S(=O)(=O)N2CCOCC2)c1)c1cccnc1`, the concentration for half-maximal inhibition (IC50) in [1] is over 3 µM.

For the compound `C/C(=N\NC(=O)c1cccc(S(=O)(=O)N2CCOCC2)c1)c1cccc2ccccc12`, in the assay with T47D, the IC50 was over 10 µM.

Regarding `C/C(=N/NC(=O)c1cnc(Cl)c(Br)c1)c1cc(Cl)ccc1O`, the IC50 in the assay with T47D is 0.27 µM; in [1], over 3 µM.

Take `C/C(=N\NC(=O)c1ccccc1)c1c(O)cccc1O`: the 50% inhibitory concentration (IC50) is over 10 µM in the assay with T47D and over 3 µM in assay [1].

Regarding `CCNCCCNC/C=C\CNCCCNCC`, in [3], the IC50 turned out to be 0.25 µM.

Broadly, the Ki is the equilibrium dissociation constant of an inhibitor or competing ligand from its target. A word on the inhibition: it is the relative decrease from the control value, in per cent. Regarding `C/C(=N\NC(=O)c1cccc(S(=O)(=O)N2CCOCC2)c1)c1cc(Cl)ccc1O`, the results for the Tm in [4] and in assay [13] were 44.6 °C and 45.4 °C, respectively. Besides, the Ki in [5] stood at 0.0547 µM; in assay [8] it was 0.0353 µM; in assay [10], 0.0352 µM; in assay [15], 0.0319 µM; in assay [16], 0.0135 µM. For the same compound, the half-inhibitory concentration (IC50) in assay [6] was over 10 µM; against Cytochrome P450 2C9, 8.04 µM; in [7], over 10 µM; in assay [9], over 300 µM; against Cytochrome P450 2D6, over 10 µM; on Cytochrome P450 1A2, over 10 µM. Also, the IC50 is over 10 µM in assay [11], 2.61 µM on Cytochrome P450 3A4, over 300 µM in assay [12] and 9.76 µM at Cytochrome P450 2C19. The compound also displayed an inhibition in assay [14] of 65.7%.

As to `C/C(=N\NC(=O)c1cccc(S(=O)(=O)N2CCOCC2)c1)c1cc(Cl)ccc1Cl`, the concentration for half-maximal inhibition (IC50) was 1.7 µM with T47D and over 3 µM in assay [1]. Also, the Tm in assay [4] turned out to be 43.3 °C; in [13], 40.8 °C; in assay [18] it was 46.7 °C. In addition, the inhibition entry in assay [17] and in [14] was “inactive” throughout.

Compound `C/C(=N/NC(=O)c1cccc(S(=O)(=O)N(C)C)c1)c1cc(Cl)ccc1O` gave a concentration for half-maximal inhibition (IC50) with T47D of 1.38 µM.

With `C/C(=N/NC(=O)c1cncc(Cl)c1)c1cc(Cl)ccc1O`, the values for the half-inhibitory concentration (IC50) (in the assay on T47D; in [1]) were 0.616 µM and over 3 µM, respectively.

On to `C/C(=N/NC(=O)c1ccc(Cl)c(Br)c1)c1cc(Cl)ccc1O`, for which the IC50 is 0.565 µM in the assay on T47D and over 3 µM in assay [1].

For `O=C(NNC(=O)c1cc(S(=O)(=O)N2CCOCC2)ccc1F)c1cccc(Cl)c1`, the half-inhibitory concentration (IC50) in the assay with T47D was over 10 µM; in assay [1] it was over 3 µM.
